The values below come from patent publication US20170183297A1, “OMEGA-3 ANALOGUES” (The University of Sydney, priority 2014, published 2017).

The nature of series [1]: Mouse body weight growth in control and treated groups. Conditions: IP 2.5, 10 and 40 mg/kg, 37 days; for body weight growth of treated mice compared with control group: once a day six days per week. Format: in vivo. On the procedure:
The weight range at the start of IP treatments was from 13.1 g to 18.1 g at Day 1 and increased to a range of 17.1 g to 21.3 g at Day 37.
(§1) After 4 days of cancer cell xenografting, IP administration of compounds CP01 or CP03 was started (2.5, 10 and 40 mg/kg). Compounds were diluted in corn oil containing 4% DMSO. Injection volume was 50 μL each mouse with a 20-gram body weight. IP injections were administered once a day for six days per week for a total of 37 days in duration. In a further study (see below), different doses of CP01, CP03 and CP05 were administered to nude mice carrying MDA-MB-231 xenografts (FIGS. 11, 12 and 13, respectively). The endpoint in this experiment was tumour volume and the experiments were conducted for 32 days.
(§2) Body weights were recorded six days per week and tumour sizes were measured with a pair of caliper, every three to four days.

The subject of series [2] is human MDA-MB-231 breast cancer cell xenografts. Put plainly: Dose-response effects on breast tumour growth in nude mice with MDA-MB-231 xenografts (37 days IP). Format: in vivo, mouse (nu/nu Balb/c, female). Conditions: for Average tumour volumes / Final tumour weight at day 37: mean ± SEM, n = 5; for tumour suppression (overall statement): all doses (2.5, 10, 40 mg/kg). Here is the method: Dose-response effects of compounds CP01 and CP03 on breast tumour growth in nude mice with human MDA-MB-231 breast cancer cell xenografts (subcutaneous injection in mammary fat pad)
5 weeks old when ordered, 6 weeks old when xenografted.
human MDA-MB-231 cells, 4×10^5 cells/100 μL (Matrigel:PBS 1:1)/mouse, subcutaneous injection into the third mammary fat pad.
7 groups, 5 mice in each group. After the cell injection, 7 cages were randomly divided into 7 groups following the average mouse body weight of mice each cage. • Control • CP01-2.5 mg/kg • CP01-10 mg/kg • CP01-40 mg/kg • CP03-2.5 mg/kg • CP03-10 mg/kg • CP03-40 mg/kg
Solid CP01 or CP03 powder was dissolved in DMSO at 40° C. to a final concentration of 400 mg/mL.
as §1, §2

The test system of another series is MDA-MB-231 cells. Put plainly: Matrigel migration assay. Format: cell-based, Human. The following applies: 1, 5 and 10 μM, 24 h; P<0.01; FIG. 4. On the procedure:
Human MDA-MB-231, MDA-MB-468 and T-47D breast cancer cells were obtained from the American Type Culture Collection (ATCC; Manassas, Va., USA). Cells were plated on 96-well microplates at a density of 1×10^4 cells per well for MTT, ATP, Caspase and JC-1 assays. Cells were maintained in Dulbecco's Modified Eagle's Medium (DMEM; Invitrogen, Carlsbad, Calif., USA) supplemented with 10% (w/v) fetal bovine serum (Hyclone, Salt Lake City, Utah, USA), 100 U/mL penicillin, and 100 μg/mL streptomycin (Invitrogen). All of the cells were incubated at 37° C. in a humidified atmosphere of 95% air and 5% CO2. Confluent cells (80-90%) were washed in phosphate-buffered saline, harvested using Trypsin/EDTA, and counted using trypan blue exclusion in a Countess Automated Cell Counter (Invitrogen) before passaging or use in assays.
MDA-MB-231 cells were trypsinized and resuspended in serum-free DMEM media (3.5×10^6 cells/mL). The cell suspension was mixed 1:1 with Matrigel solution (Bio Scientific; Kirrawee, NSW, Australia). Aliquots (20 μL containing 3.5×10^4 cells) were placed into 6-well tissue-culture dishes to form well-defined droplets and incubated at 37° C. for 5 min to enable semi-solidification. Migration media was freshly made as DMEM containing 20% fetal bovine serum, epidermal growth factor 10 pg/mL, hydrocortisone 0.4 ng/mL, vascular endothelial growth factor (VEGF, 1 pg/mL), basic fibroblast growth factor (bFGF, 20 pg/mL), insulin-like growth factor-1 (40 pg/mL), ascorbic acid (2 ng/mL) and heparin (45 ng/mL). Compounds were added in migration media (3 mL/well) and plates were then incubated for 24 h. Cells that migrated out of droplets were scored using phase-contrast microscopy and digital image analysis (Olympus).

As to `O=C(O)CCCCCCCCCCCSCCCNC(=O)Nc1ccc(Cl)c(C(F)(F)F)c1` [CP01, 12-{[3-({[4-Chloro-3-(trifluoromethyl)phenyl]carbamoyl}amino)propyl]sulfanyl}dodecanoic acid], the “evidence of toxicity (from body weight)” value in series [1] is “no evidence of toxicity”. Further, in series [1], the “body weight growth of treated mice compared with control group” value is “no significant difference”. The Average tumour volumes in series [2] (2.5 mg/kg IP, Day 8) is 12.5 ± 1.9 mm^3; in series [2] (2.5 mg/kg IP, Day 11) it was 10.5 ± 1^ mm^3; in series [2] (2.5 mg/kg IP, Day 15) it was 10 ± 2.9 mm^3; in series [2] (2.5 mg/kg IP, Day 18) it was 12.2 ± 3.2 mm^3; in series [2] (2.5 mg/kg IP, Day 21), 16.9 ± 4.4 mm^3; in series [2] (2.5 mg/kg IP, Day 25), 23.9 ± 6.1 mm^3. Besides, the Average tumour volumes was 29.3 ± 7.4 mm^3 in series [2] (2.5 mg/kg IP, Day 29); 52.1 ± 15 mm^3 in series [2] (2.5 mg/kg IP, Day 32); 67.7 ± 17.1 mm^3 in series [2] (2.5 mg/kg IP, Day 35); 78.7 ± 19.8 mm^3 in series [2] (2.5 mg/kg IP, Day 37); 15 ± 2.4 mm^3 in series [2] (10 mg/kg IP, Day 8); 15.6 ± 1.8 mm^3 in series [2] (10 mg/kg IP, Day 11). Also, the Average tumour volumes was found to be 16.5 ± 2.8 mm^3 in series [2] (10 mg/kg IP, Day 15); 22 ± 4.5 mm^3 in series [2] (10 mg/kg IP, Day 18); 26.4 ± 4.5 mm^3 in series [2] (10 mg/kg IP, Day 21); 33.6 ± 6.2 mm^3 in series [2] (10 mg/kg IP, Day 25); 45.2 ± 11.2 mm^3 in series [2] (10 mg/kg IP, Day 29); 67.5 ± 19.3 mm^3 in series [2] (10 mg/kg IP, Day 32). The Average tumour volumes in series [2] (10 mg/kg IP, Day 35) was 85.7 ± 25.3 mm^3; in series [2] (10 mg/kg IP, Day 37), 116.5 ± 37.6 mm^3; in series [2] (40 mg/kg IP, Day 8), 11 ± 1.3 mm^3; in series [2] (40 mg/kg IP, Day 11), 13.6 ± 2^ mm^3; in series [2] (40 mg/kg IP, Day 15) it was 14.7 ± 0.7 mm^3; in series [2] (40 mg/kg IP, Day 18), 23.6 ± 2.7 mm^3. Also, the Average tumour volumes in series [2] (40 mg/kg IP, Day 21) was 26.3 ± 6^ mm^3; in series [2] (40 mg/kg IP, Day 25) it was 35.9 ± 13.4 mm^3; in series [2] (40 mg/kg IP, Day 29), 47.8 ± 17^ mm^3; in series [2] (40 mg/kg IP, Day 32), 67.8 ± 26 mm^3; in series [2] (40 mg/kg IP, Day 35), 116.6 ± 40.7 mm^3; in series [2] (40 mg/kg IP, Day 37), 132.8 ± 50.9 mm^3. Moreover, the “Final tumour weight at day 37” value in series [2] (2.5 mg/kg IP) is on record as 0.05 ± 0.01 g; in series [2] (10 mg/kg IP), 0.08 ± 0.03 g; in series [2] (40 mg/kg IP), 0.11 ± 0.05 g. Also, the “tumour suppression (overall statement)” value in series [2] is listed as “strong trends toward tumour suppression at all doses”. Moreover, the “reduction in tumour size (suppression of tumour growth)” value worked out at 59% in series [2] (dose 2.5 mg/kg), 39% in series [2] (dose 10 mg/kg) and 30% in series [2] (dose 40 mg/kg).

Turning to `O=C(O)CSCCCCCCCCCCCCCNC(=O)Nc1ccc(Cl)c(C(F)(F)F)c1` [CP03, {[13-({[4-Chloro-3-(trifluoromethyl)phenyl]carbamoyl}amino)tridecyl]sulfanyl}acetic acid], the “evidence of toxicity (from body weight)” value in series [1] is listed as “no evidence of toxicity”. The “body weight growth of treated mice compared with control group” value in series [1] is “no significant difference”. Also, the Average tumour volumes is 8.8 ± 1.4 mm^3 in series [2] (2.5 mg/kg IP, Day 8); 10.7 ± 1.3 mm^3 in series [2] (2.5 mg/kg IP, Day 11); 14.5 ± 0.9 mm^3 in series [2] (2.5 mg/kg IP, Day 15); 18 ± 1.6 mm^3 in series [2] (2.5 mg/kg IP, Day 18); 23 ± 2.8 mm^3 in series [2] (2.5 mg/kg IP, Day 21); 29.5 ± 6 mm^3 in series [2] (2.5 mg/kg IP, Day 25). The Average tumour volumes in series [2] (2.5 mg/kg IP, Day 29) was 45.4 ± 9.5 mm^3; in series [2] (2.5 mg/kg IP, Day 32), 60.9 ± 13.7 mm^3; in series [2] (2.5 mg/kg IP, Day 35), 80.4 ± 21^ mm^3; in series [2] (2.5 mg/kg IP, Day 37) it was 106.7 ± 29.4 mm^3; in series [2] (10 mg/kg IP, Day 8) it was 11.3 ± 2.9 mm^3; in series [2] (10 mg/kg IP, Day 11), 10.9 ± 1.5 mm^3. The Average tumour volumes came out at 16.5 ± 2.8 mm^3 in series [2] (10 mg/kg IP, Day 15); 19.3 ± 2.1 mm^3 in series [2] (10 mg/kg IP, Day 18); 17.1 ± 2.9 mm^3 in series [2] (10 mg/kg IP, Day 21); 23.1 ± 5 mm^3 in series [2] (10 mg/kg IP, Day 25); 29 ± 7.5 mm^3 in series [2] (10 mg/kg IP, Day 29); 39.3 ± 12.9 mm^3 in series [2] (10 mg/kg IP, Day 32). Moreover, the Average tumour volumes in series [2] (10 mg/kg IP, Day 35) is recorded as 50.3 ± 21.2 mm^3; in series [2] (10 mg/kg IP, Day 37), 67.3 ± 33.3 mm^3; in series [2] (40 mg/kg IP, Day 8) it was 13.4 ± 2.3 mm^3; in series [2] (40 mg/kg IP, Day 11) it was 12.5 ± 2^ mm^3; in series [2] (40 mg/kg IP, Day 15), 17.2 ± 1.9 mm^3; in series [2] (40 mg/kg IP, Day 18) it was 24.4 ± 5.5 mm^3. Besides, the Average tumour volumes in series [2] (40 mg/kg IP, Day 21) is recorded as 24 ± 5.2 mm^3; in series [2] (40 mg/kg IP, Day 25) it was 35.7 ± 10.7 mm^3; in series [2] (40 mg/kg IP, Day 29) it was 46.3 ± 16.7 mm^3; in series [2] (40 mg/kg IP, Day 32), 65.7 ± 23^ mm^3; in series [2] (40 mg/kg IP, Day 35), 96.1 ± 33.8 mm^3; in series [2] (40 mg/kg IP, Day 37) it was 118.9 ± 44.7 mm^3. The “Final tumour weight at day 37” value in series [2] (2.5 mg/kg IP) came out at 0.09 ± 0.03 g; in series [2] (10 mg/kg IP), 0.06 ± 0.03 g; in series [2] (40 mg/kg IP), 0.09 ± 0.04 g. In series [2], the “tumour suppression (overall statement)” value is listed as “strong trends toward tumour suppression at all doses”. Besides, the “reduction in tumour size (suppression of tumour growth)” value was 44% in series [2] (dose 2.5 mg/kg), 65% in series [2] (dose 10 mg/kg) and 38% in series [2] (dose 40 mg/kg).

Turning to `Cc1ccc(NC(=O)NCCCSCCCCCCCCCSCC(=O)O)cc1` [CP06, ({9-[(3-{[(4-Methylphenyl)carbamoyl]amino}propyl)sulfanyl]nonyl}sulfanyl)acetic acid], the “migration of MDA-MB-231 cells out of matrigel droplets” value (“migration” below) with MDA-MB-231 cells is listed as “all decreases significant”.

As for `Cc1ccc(NC(=O)NCCCSCCCCCCCCCCCC(=O)O)cc1` [CP02, 12-[(3-{[(4-Methylphenyl)carbamoyl]amino}propyl)sulfanyl]dodecanoic acid], in the series on MDA-MB-231 cells, the “migration” value is reported as “all decreases significant”.

As for `Cc1ccc(NC(=O)NCCCCCCCCCCCCCSCC(=O)O)cc1` [CP04], the “migration” value in the series on MDA-MB-231 cells is reported as “all decreases significant”.
